Test results published in patent publication US20030229063A1, “Use of 4-hydroxytestosterone to lower estrogen levels in humans” (priority 2002, published 2003).

Assays:
aromatase enzyme complex = biological target: T1, aromatase enzyme complex (Homo sapiens, UniProt P11511); conditions: irrevocably attaches the enzyme; cited from earlier work
T1 sequence (P11511 1-503): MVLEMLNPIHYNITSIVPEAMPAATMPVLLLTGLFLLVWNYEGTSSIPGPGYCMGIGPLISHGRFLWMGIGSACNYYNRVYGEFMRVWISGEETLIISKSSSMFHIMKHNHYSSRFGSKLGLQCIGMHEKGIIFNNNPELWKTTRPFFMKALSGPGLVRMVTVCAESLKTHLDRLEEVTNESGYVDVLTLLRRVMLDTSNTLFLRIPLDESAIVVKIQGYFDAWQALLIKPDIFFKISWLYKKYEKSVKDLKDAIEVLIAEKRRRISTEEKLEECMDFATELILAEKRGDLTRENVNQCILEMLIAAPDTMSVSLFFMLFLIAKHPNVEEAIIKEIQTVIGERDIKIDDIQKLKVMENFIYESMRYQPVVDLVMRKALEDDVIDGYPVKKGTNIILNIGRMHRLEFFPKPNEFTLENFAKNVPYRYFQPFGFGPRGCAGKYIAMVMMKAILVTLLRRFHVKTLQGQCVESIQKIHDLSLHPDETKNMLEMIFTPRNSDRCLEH

aromatase [1] = biological target: T2, aromatase (Homo sapiens, UniProt P11511); experiment: clinical study of peroral aromatase inhibition in man; assay type: in vivo; design: from tissue; host or cells: in vivo, human subjects (whole body); conditions: in humans
T2 sequence (P11511 1-503): T1 sequence (P11511 1-503)

aromatase [2] = biological target: T2, aromatase; conditions: androstenedione vs testosterone as aromatase substrates; cited from earlier work

Row | Structure (SMILES) | ability to aromatize to the corresponding estrogen (aromatase [2]) | further results
1 | C[C@]12CCC(=O)C(O)=C1CC[C@@H]1[C@@H]2CC[C@]2(C)C(=O)CC[C@@H]12 [4-hydroxyandrostenedione] | – | mode of aromatase inhibition (aromatase enzyme complex): suicide substrate for the aromatase enzyme complex
2 | C[C@]12CC[C@H]3[C@@H](CCC4=C(O)C(=O)CC[C@@]43C)[C@@H]1CC[C@@H]2O [4-hydroxytestosterone, 4,17b-dihydroxy-4-androstene-3-one] | – | efficacy as an inhibitor of aromatase compared with 4-hydroxyandrostenedione (aromatase [1]): equally high level of efficacy in humans as an inhibitor of aromatase
3 | C[C@]12CCC(=O)C=C1CC[C@@H]1[C@@H]2CC[C@]2(C)C(=O)CC[C@@H]12 [androstenedione] | both hormones aromatized with equal efficacy | –
4 | C[C@]12CC[C@H]3[C@@H](CCC4=CC(=O)CC[C@@]43C)[C@@H]1CC[C@@H]2O [testosterone] | both hormones aromatized with equal efficacy | –
